The source of these data is patent US20240425523A1, “Compounds for the Degradation of EGFR Kinase” (Beigene Switzerland GMBH, priority 2023, published 2024).

Where only a bound is given, the exact number is not on record here.

Holding throughout (format): cell-based
In test [1] the target is T1, EGFR L858R (BaF3-L858R cells) (Homo sapiens, UniProt P00533, L858R).
T1 construct: host or cells: BaF3
Put plainly: Cell degradation of EGFR, HTRF assay, BaF3-L858R cells. The conditions noted are these: 16 h treatment; for DC50: EGFR degradation; for Dmax: maximum percentage of degradation. The procedure, abridged: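 EGFR L858R levels measured by HTRF antibody pair in lysed BaF3-L858R cells after 16 h compound exposure (8-point 5-fold series from 10 uM final, 37° C). Degradation is relative to DMSO-only cells; DC50 fitted with Hill equation, Dmax taken as the largest percent loss.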
In general terms: In TR-FRET formats the signal depends on donor and acceptor labels being close together.

The target in test [2] is T2, p-EGFR L858R (BaF3-L858R cells) (Homo sapiens, UniProt P00533, L858R).
T2 construct: host or cells: BaF3
As to the kind of experiment: Cell p-EGFR inhibition assay, HTRF, BaF3-L858R cells. The conditions noted are these: 16 h treatment; for Imax (%): maximum percentage of pEGFR inhibition; for IC50: pEGFR inhibition. The procedure, abridged: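 BaF3-L858R cells treated 16 h at 37 °C, 5% CO2 with compound from 10 uM top, 5-fold dilutions, 8 doses, in 0.1% DMSO medium. Lysates read overnight by HTRF p-EGFR antibodies; IC50 fitted to four-parameter curve against DMSO high control.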

For test [3], the target named is T3, EGFR-L858R/C797S (H1975-clone #8 cells) (Homo sapiens, UniProt P00533, C797S/L858R).
T3 construct: expressed in transfected cells; host or cells: H1975 (endogenous EGFR knocked out, clone #8)
As to the kind of experiment: Cell degradation of EGFR, HTRF assay, H1975-clone#8 (L858R/C797S) cells. As to conditions: 16 h treatment; for DC50: EGFR degradation; for Dmax: maximum percentage of degradation.

Test [4] addresses p-EGFR Del19/C797S (H1975-clone #23 cells) (Homo sapiens, UniProt P00533). As to the kind of experiment: Cell p-EGFR inhibition assay, HTRF, H1975-clone#23 (DEL19/C797S) cells. The conditions noted are these: 16 h treatment; for Imax (%): maximum percentage of pEGFR inhibition; for IC50: pEGFR inhibition. The essentials:
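Phospho-EGFR read by overnight HTRF on lysates, normalized to DMSO-treated high control; IC50, Hill slope and Imax fitted. Compounds were applied for 16 h (10 uM top, 5-fold steps, 8 doses) to an H1975 single clone carrying only exogenous Del19/C797S EGFR after sgRNA knockout of endogenous copies.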

Consider `COC[C@H]1CN(c2ccc3c(c2)N2C[C@@H]4CC[C@H](COc5c(c(C)nn5C)-c5cc(cc(C)n5)C(=O)/N=C/2N3)C4)CCN1C1CCN(c2c(C)cc(C3CCC(=O)NC3=O)nc2C)CC1` (stereo partly drawn) [Example 141, 3-(5-(4-((R)-2-(methoxymethyl)-4-((7^1R,7^3S,E)-1^1,1^3,2^6-trimethyl-3-oxo-5^2,5^3-dihydro-1^1H,5^1H-9-oxa-4-aza-5(2,1)-benzo[d]imidazola-2(2,4)-pyridina-1(4,5)-pyrazola-7(1,3)-cyclopentanacyclononaphane-5^6-yl)piperazin-1-yl)piperidin-1-yl)-4,6-dimethylpyridin-2-yl)piperidine-2,6-dione], for which, in test [1], the DC50 turned out to be 1.13 nM and the Dmax amounted to 87.5%. In addition, in test [2], the “Imax (%)” value is 98.22% and inhibition was half-maximal at 7.7 nM (IC50). In test [3], this molecule yielded a DC50 of 0.804 nM and a Dmax of 66.1%. Moreover, in test [4], the “Imax (%)” value amounted to 100.38% and the IC50 worked out at 0.825 nM.

In test [1], `Cc1cc2cc(n1)-c1c(C)nn(C)c1OC[C@H]1CC[C@H](C1)CN1/C(=N/C2=O)Nc2ccc(N3CCN(C4CCN(c5cc(F)c([C@H]6CCC(=O)NC6=O)c(F)c5)CC4)[C@H](C)C3)cc21` [Example 192, (R)-3-(2,6-difluoro-4-(4-((R)-2-methyl-4-((7^1R,7^3S,E)-1^1,1^3,2^6-trimethyl-3-oxo-5^2,5^3-dihydro-1^1H,5^1H-9-oxa-4-aza-5(2,1)-benzo[d]imidazola-2(2,4)-pyridina-1(4,5)-pyrazola-7(1,3)-cyclopentanacyclononaphane-5^6-yl)piperazin-1-yl)piperidin-1-yl)phenyl)piperidine-2,6-dione] returned a DC50 of 2.42 nM and a Dmax of 87.9%. In addition, in test [2], the “Imax (%)” value was 89.34% and it took 1.53 nM to reach half-maximal inhibition (IC50). Moreover, in test [3], the DC50 amounted to 1.01 nM and the Dmax worked out at 88.8%. Further, in test [4], the “Imax (%)” value amounted to 99.96% and 1.39 nM corresponded to half-maximal inhibition (IC50).

Turning to `CC[C@@H]1CN(c2ccc3c(c2)N2C[C@@H]4CC[C@H](COc5c(c(C)nn5C)-c5cc(cc(C)n5)C(=O)/N=C/2N3)C4)CCN1C1CCN(c2cc(F)c([C@H]3CCC(=O)NC3=O)c(F)c2)CC1` [Example 188, (R)-3-(4-(4-((R)-2-ethyl-4-((7^1R,7^3S,E)-1^1,1^3,2^6-trimethyl-3-oxo-5^2,5^3-dihydro-1^1H,5^1H-9-oxa-4-aza-5(2,1)-benzo[d]imidazola-2(2,4)-pyridina-1(4,5)-pyrazola-7(1,3)-cyclopentanacyclononaphane-5^6-yl)piperazin-1-yl)piperidin-1-yl)-2,6-difluorophenyl)piperidine-2,6-dione], in test [1], half-maximal degradation (DC50) was put at 4.2 nM and the Dmax worked out at 93.2%. In addition, in test [2], the “Imax (%)” value is 90.67% and the IC50 was below 0.128 nM. In test [3], this molecule returned a DC50 of 3.78 nM and a Dmax of 84.9%. In test [4], the “Imax (%)” value is recorded as 99.79% and the IC50 is 1.95 nM.

Take `COC[C@H]1CN(c2ccc3c(c2)N2CC4CC[C@H](COc5c(c(C(F)(F)F)nn5C)-c5cc(cc(C)n5)C(=O)/N=C/2N3)C4)CCN1C1CCN(c2cc(F)c([C@H]3CCC(=O)NC3=O)c(F)c2)CC1` [Example 95, (R)-3-(4-(4-((R)-4-((7^1R,7^3S,E)-1^1,2^6-dimethyl-3-oxo-1^3-(trifluoromethyl)-5^2,5^3-dihydro-1^1H,5^1H-9-oxa-4-aza-5(2,1)-benzo[d]imidazola-2(2,4)-pyridina-1(4,5)-pyrazola-7(1,3)-cyclopentanacyclononaphane-5^6-yl)-2-(methoxymethyl)piperazin-1-yl)piperidin-1-yl)-2,6-difluorophenyl)piperidine-2,6-dione]: in test [1], it took 8.5 nM to reach half-maximal degradation (DC50) and the Dmax came out at 86.5%. In test [2], the “Imax (%)” value is listed as 99.3% and the IC50 was 10.8 nM. Moreover, in test [3], the DC50 was 12.1 nM and the Dmax came out at 79%. In test [4], the “Imax (%)” value was 101% and the midpoint of inhibition, the IC50, lay at 4.5 nM.

With `Cc1cc2cc(n1)-c1cnn(C)c1OC[C@H]1CCC(C1)CN1/C(=N/C2=O)Nc2ccc(N3CCC(CN4CCC(Nc5cc(F)c([C@H]6CCC(=O)NC6=O)c(F)c5)CC4)CC3)cc21` [Example 131, (R)-3-(4-((1-((1-((7^1R,7^3S,E)-1^1,2^6-dimethyl-3-oxo-5^2,5^3-dihydro-1^1H,5^1H-9-oxa-4-aza-5(2,1)-benzo[d]imidazola-2(2,4)-pyridina-1(4,5)-pyrazola-7(1,3)-cyclopentanacyclononaphane-5^6-yl)piperidin-4-yl)methyl)piperidin-4-yl)amino)-2,6-difluorophenyl)piperidine-2,6-dione], the figures for the DC50 in test [1] and in test [3] were 4.84 nM and 0.867 nM, respectively. Also, the figures for the Dmax in test [1] and in test [3] were 69.1% and 72%, respectively. In addition, the figures for the “Imax (%)” value in test [2] and in test [4] were 102.8% and 103.08%, respectively. The values for the IC50 in test [2] and in test [4] were 6.4 nM and 0.796 nM, respectively.

In test [1], `Cc1cc2cc(n1)-c1c(C)nn(C)c1OC[C@H]1CC[C@H](C1)CN1/C(=N/C2=O)Nc2ccc(N3CC(N(C)C4CCN(c5cc(F)c([C@H]6CCC(=O)NC6=O)c(F)c5)CC4)C3)cc21` [Example 153, (R)-3-(2,6-difluoro-4-(4-(methyl(1-((7^1R,7^3S,E)-1^1,1^3,2^6-trimethyl-3-oxo-5^2,5^3-dihydro-1^1H,5^1H-9-oxa-4-aza-5(2,1)-benzo[d]imidazola-2(2,4)-pyridina-1(4,5)-pyrazola-7(1,3)-cyclopentanacyclononaphane-5^6-yl)azetidin-3-yl)amino)piperidin-1-yl)phenyl)piperidine-2,6-dione] came in with a DC50 of 2.8 nM and a Dmax of 84.4%. Besides, in test [2], the “Imax (%)” value worked out at 97.42% and the IC50 worked out at 11.1 nM. Also, in test [3], the DC50 is 2.92 nM and the Dmax was found to be 87%. Further, in test [4], the “Imax (%)” value came to 100.23% and half-maximal inhibition (IC50) required 1.56 nM.

For `Cc1cc2cc(n1)-c1c(C)nn(C)c1OC[C@H]1CC[C@H](C1)CN1/C(=N/C2=O)Nc2ccc(N3CCN(C[C@@H]4CCN(c5cc(F)c([C@H]6CCC(=O)NC6=O)c(F)c5)C4)CC3)cc21` [Example 184, (R)-3-(2,6-difluoro-4-((S)-3-((4-((7^1R,7^3S,E)-1^1,1^3,2^6-trimethyl-3-oxo-5^2,5^3-dihydro-1^1H,5^1H-9-oxa-4-aza-5(2,1)-benzo[d]imidazola-2(2,4)-pyridina-1(4,5)-pyrazola-7(1,3)-cyclopentanacyclononaphane-5^6-yl)piperazin-1-yl)methyl)pyrrolidin-1-yl)phenyl)piperidine-2,6-dione], in test [1], the DC50 is 4.99 nM and the Dmax was 90.1%. Moreover, in test [2], the “Imax (%)” value is given as 91.67% and the IC50 was 1.25 nM. Further, in test [3], the DC50 is 3.16 nM and the Dmax was determined as 89.3%. For the same molecule, in test [4], the “Imax (%)” value stood at 100.52% and the IC50 turned out to be 2.48 nM.

In test [1], `COC[C@@H]1CN(c2ccc3c(c2)N2CC4CC[C@H](COc5c(c(C)nn5C)-c5cc(cc(C)n5)C(=O)/N=C/2N3)C4)CCN1C1CCN(c2c(F)cc(NC3CCC(=O)NC3=O)cc2F)CC1` (stereo partly drawn) [Example 133, 3-((3,5-difluoro-4-(4-((S)-2-(methoxymethyl)-4-((7R,7^3S,E)-1^1,1^3,2^6-trimethyl-3-oxo-5^2,5^3-dihydro-1^1H,5^1H-9-oxa-4-aza-5(2,1)-benzo[d]imidazola-2(2,4)-pyridina-1(4,5)-pyrazola-7(1,3)-cyclopentanacyclononaphane-5^6-yl)piperazin-1-yl)piperidin-1-yl)phenyl)amino)piperidine-2,6-dione] gave a DC50 of 2.36 nM and a Dmax of 85.7%. Moreover, in test [2], the “Imax (%)” value is given as 96.88% and it took 2.88 nM to reach half-maximal inhibition (IC50). In test [3], this molecule registered a DC50 of 2.94 nM and a Dmax of 86.5%. For the same molecule, in test [4], the “Imax (%)” value worked out at 99.55% and inhibition was half-maximal at 1.45 nM (IC50).

Turning to `Cc1cc2cc(n1)-c1c(C)nn(C)c1OC[C@H]1CC[C@H](C1)CN1/C(=N/C2=O)Nc2ccc(N3CCN([C@H]4CCN(c5cnc(C6CCC(=O)NC6=O)cc5C)CC4(F)F)CC3)cc21` (stereo partly drawn) [Example 101, 3-(5-((S)-3,3-difluoro-4-(4-((7^1R,7^3S,E)-1^1,1^3,2^6-trimethyl-3-oxo-5^2,5^3-dihydro-1^1H,5^1H-9-oxa-4-aza-5(2,1)-benzo[d]imidazola-2(2,4)-pyridina-1(4,5)-pyrazola-7(1,3)-cyclopentanacyclononaphane-5^6-yl)piperazin-1-yl)piperidin-1-yl)-4-methylpyridin-2-yl)piperidine-2,6-dione], in test [1], the DC50 was 2.22 nM and the Dmax was determined as 81.8%. Also, in test [2], the “Imax (%)” value is 106.4% and half-maximal inhibition (IC50) was put at 3.5 nM. In test [3], this molecule came in with a DC50 of 1.58 nM and a Dmax of 90.2%. Moreover, in test [4], the “Imax (%)” value came out at 101% and the IC50 was found to be 1 nM.

A word on the DC50: it is the concentration giving 50% degradation. The Dmax is the greatest extent of degradation seen. Higher therefore signals a fuller loss of target. Broadly, the IC50 is the concentration at which inhibition is half-maximal. High values mean weaker potency, low ones greater potency.
